Test results published in US10047036B2, “Method for the synthesis of hydroxy-triglycerides and uses thereof for the prevention and treatment of diseases” (UNIVERSITAT DE LES ILLES BALEARS, priority 2014, dated 2018).

How the values were obtained:
[1] = test system: transgenic rat with 5 mutations of human familial Alzheimer's (Tag); experiment: radial maze test in transgenic rats with Alzheimer's; assay type: in vivo; conditions: for Errors made in the radial maze: Tag rats, 50 mg/kg p.o. daily, 100% = healthy animals without Alzheimer's
Protocol: In order to study Alzheimer's disease a transgenic rat model was used with 5 mutations which appear in human familiar Alzheimer's (symbolised as Tag, and abbreviated Tg). This model of Alzheimer's is very severe, and the animals already show a cognitive deficit at 2 months of age. To carry out this experiment, both young rats (of 3 months of age) and aged rats (of 10 months of age) were used and treated for 3 months with the hydroxy-triglycerides of the present invention (50 mg/kg day, p.o.). The rats were subjected to a low-calorie diet so that they would be hungry and carry out a test in a radial maze, in which food was placed in 4 of the device's 8 arms (asymmetrically), quantifying the number of errors committed until the exercise was completed. […]
The control animals were treated with vehicle (saline) and the rest with 50 mg/kg (p.o.) daily of the indicated compound.

[2] = target: T1, Glycogen Branching Enzyme 1 (GBE1) wild type (Homo sapiens, UniProt Q04446); experiment: activity of purified enzyme GBE1 in the presence of PC membranes; assay type: biochemical; conditions: PC membranes with TGM 20 mol %; non-mutated enzyme = 100% (0.76 nmol/min · ng protein)
T1 sequence (Q04446 1-702): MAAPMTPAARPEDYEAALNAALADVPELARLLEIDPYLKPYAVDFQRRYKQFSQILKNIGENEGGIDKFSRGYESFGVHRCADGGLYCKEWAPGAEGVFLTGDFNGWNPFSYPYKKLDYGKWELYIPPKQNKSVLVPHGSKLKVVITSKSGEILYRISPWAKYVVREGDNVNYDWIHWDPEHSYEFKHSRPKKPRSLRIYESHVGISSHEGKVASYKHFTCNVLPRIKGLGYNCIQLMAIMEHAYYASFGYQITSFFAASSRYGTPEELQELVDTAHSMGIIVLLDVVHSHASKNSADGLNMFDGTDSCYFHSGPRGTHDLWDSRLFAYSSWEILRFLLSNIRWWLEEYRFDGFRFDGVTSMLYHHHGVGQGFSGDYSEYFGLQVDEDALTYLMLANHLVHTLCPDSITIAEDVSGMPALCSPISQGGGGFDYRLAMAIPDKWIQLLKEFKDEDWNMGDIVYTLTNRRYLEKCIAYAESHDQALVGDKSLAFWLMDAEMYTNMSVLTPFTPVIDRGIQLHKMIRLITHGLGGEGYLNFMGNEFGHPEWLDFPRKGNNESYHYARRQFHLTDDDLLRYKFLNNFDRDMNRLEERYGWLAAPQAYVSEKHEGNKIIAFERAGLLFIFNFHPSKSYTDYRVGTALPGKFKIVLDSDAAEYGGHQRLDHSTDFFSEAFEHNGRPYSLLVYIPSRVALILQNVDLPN
From the text: It has been possible to observe that the molecules of the present invention are capable of regulating the activity of the Glycogen Branching Enzyme 1 (GBE1) and its joining to membranes (Table 9). Alterations in this enzyme give rise to a neurodegenerative process known as APBD (Kakhlon et al., 2013). It has been described that a modification of tyrosine in position 329 of this enzyme (Y329S) causes a reduction in the activity of GBE1. This gives rise to a lower branching of glycogen, which precipitates forming […] which interfere with cell activity (Kakhlon et al., 2013). This gives rise to problems in the function of certain organs, to motor problems and, in some cases, to cognitive decline. We have been able to verify that the hydroxy-triglycerides of the present invention are capable of regulating the joining of native GBE1 (wild type, wt) and with the variant Y329S to membranes and to increase the activity of the form Y329S, which is very low in normal conditions (Table 9). For this reason, the molecules of the present invention are effective for the prevention and treatment of the polyglucosan bodies disease, APBD.

[3] = test system: Drosophila melanogaster flies with human Alzheimer's genes (F1); experiment: geotaxis (climbing) test in Drosophila melanogaster with Alzheimer's disease; assay type: in vivo; conditions: 100 μM in the food; for Geotaxis: age at which the animals showed a geotaxis of nil: no fly passes the line
From the text: To investigate the effect of TGMs on the cognitive parameters and aging, another model of Alzheimer's disease in Drosophila melanogaster flies with genetic alterations corresponding to human Alzheimer's was used. The flies used were the first generation (F1) from the crossing of UAS-Aβ human-Tau 2N4R (stock 33771) flies with elav-GAL4^c155 (stock 8760) flies. This model which over-expresses the two proteins typical of Alzheimer's disease is complementary to the model described above and very convenient, as these animals have a life of approximately 1 month and it is possible to add the compounds to the food of the larvae to see the preventative effect thereof throughout their entire life. Also, it allows the effect on aging to be seen and on the life expectancy of these animals (survival over time).
In this sense, the flies with human Alzheimer's (F1) present a greater cognitive decline in comparison to the “Oregon” fly strain, which are the healthy controls. To evaluate the effect of the hydroxy-triglycerides of the invention, each one of the TGMs (100 μM) was added to the food consumed by these animals. It was possible to observe a positive effect of same in the geotaxis test of climbing (FIG. 7B and Table 11). In this test, the behavioural motor activity was investigated in 25 flies treated with vehicle or one of the TGMs. In this study, the flies were introduced in a glass cylinder with an opening closed with a sponge so air could enter. The flies were taken to the ground (bottom) of the pipe by giving it a sharp blow on a table and their behaviour was timed during 20 seconds. Once this time was over, the number of flies which had passed (crossed) a mark at 15 cm from the bottom was counted (geotaxis test). Usually, more than 90% of healthy young flies passed the line within 20 seconds. However, with aging or with Alzheimer's disease, the behavioural motor activity (percentage of flies which crossed the line) declined, compared to normal flies. In this context, the treatments with the hydroxy-triglycerides of the present invention avoided this cognitive decline associated to Alzheimer's, making the cognitive capacity of the diseased flies similar to that of the healthy flies. […] This positive effect on the cognitive parameters in flies was also shown by other TGMs (Table 11). In fact, in the control group with Alzheimer, no fly crossed the line as of 23 days of age. In this sense, the different hydroxy-triglycerides induced marked increases in the geotaxis test values, with increases in the cognitive values which reached up to 36 days, 50% more in the life of the flies with Alzheimer's (Table 11).

SMILES	Errors made in the radial maze [1] [%]	Activity GBE1wt [2] [%]	Geotaxis: age at which the animals showed a geotaxis of nil [3] [days]	number of errors in the radial maze (FIG. 7A) ([1]; young and aged Tg rats, 3 months, 50 mg/kg day p.o., errors of first week of tests = 100%)	cognitive parameters in the climbing test (FIG. 7B) ([3]; compared with normal flies)
CCCCCC(O)C(=O)OCC(COC(=O)C(O)CCCCC)OC(=O)C(O)CCCCC (centres unmarked) [TGM0, 1,2,3-tri(2′-hydroxyheptanoyl)glycerol]	153.1	95 ± 12	25		
CCCCCCCCC=CCCCCCCC(O)C(=O)OCC(COC(=O)C(O)CCCCCCC=CCCCCCCCC)OC(=O)C(O)CCCCCCC=CCCCCCCCC (centres unmarked) [TGM1, 1,2,3-tri(2′-hydroxy-octadec-9′-enoyl)glycerol]	128.9	89 ± 10	32		
CCCCCC=CCC=CCCCCCCC(O)C(=O)OCC(COC(=O)C(O)CCCCCCC=CCC=CCCCCC)OC(=O)C(O)CCCCCCC=CCC=CCCCCC (centres unmarked) [TGM2, 1,2,3-tri(2′-hydroxy-octadec-9′,12′-dienoyl)glycerol]	143.2	72 ± 5	29		
CCC=CCC=CCC=CCCCCCCC(O)C(=O)OCC(COC(=O)C(O)CCCCCCC=CCC=CCC=CCC)OC(=O)C(O)CCCCCCC=CCC=CCC=CCC (centres unmarked) [TGM3A, 1,2,3-tri(2′-hydroxy-octadec-9′,12′,15′-trienoyl)glycerol]	134.5	88 ± 2	36		
CCCCCC=CCC=CCC=CCCCC(O)C(=O)OCC(COC(=O)C(O)CCCC=CCC=CCC=CCCCCC)OC(=O)C(O)CCCC=CCC=CCC=CCCCCC (centres unmarked) [TGM3G, 1,2,3-tri(2′-hydroxy-octadec-6′,9′,12′-trienoyl)glycerol]	156.8	69 ± 7	29		
CCCCCC=CCC=CCC=CCC=CCCC(O)C(=O)OCC(COC(=O)C(O)CCC=CCC=CCC=CCC=CCCCCC)OC(=O)C(O)CCC=CCC=CCC=CCC=CCCCCC (centres unmarked) [TGM4, 1,2,3-tri(2′-hydroxy-eicosa-5′,8′,11′,14′-tetraenoyl)glycerol]	101.0	31 ± 4	35		
CCC=CCC=CCC=CCC=CCC=CCCC(O)C(=O)OCC(COC(=O)C(O)CCC=CCC=CCC=CCC=CCC=CCC)OC(=O)C(O)CCC=CCC=CCC=CCC=CCC=CCC (centres unmarked) [TGM5, 1,2,3-tri(2′-hydroxy-eicosa-5′,8′,11′,14′,17′-pentaenoyl)glycerol]	121.3	24 ± 2	26		
CCC=CCC=CCC=CCC=CCC=CCC=CCC(O)C(=O)OCC(COC(=O)C(O)CC=CCC=CCC=CCC=CCC=CCC=CCC)OC(=O)C(O)CC=CCC=CCC=CCC=CCC=CCC=CCC (centres unmarked) [TGM6, 1,2,3-tri(2′-hydroxy-docosa-4′,7′,10′,13′,16′,19′-hexanoyl)glycerol]	84.7	33 ± 3	28	below 100%	practically indistinguishable from that observed in normal flies
